Laboratory results published in patent US20260199289A1, “USE OF GLYCOGEN METABOLISM INHIBITORS FOR THE TREATMENT OF CANCER” (THE UNIVERSITY OF VERMONT AND STATE AGRICULTURAL COLLEGE, priority 2022, published 2026).
“Also recorded” adds a separate entry of the source. Like-named read-outs stand apart in the source and are kept apart here.

Experiments:
8505C cells [1] = assay: Reactive oxygen species quantification (H2DCFDA); assay type: cell-based, human; conditions: for reactive oxygen species (ROS) levels: 8505C ATC cells
Procedure: Quantification of Reactive Oxygen Species—Thyroid cells (1.0-2.0×10^4) were seeded in a black 96 well plate in 200 μl CTM and allowed to adhere overnight. Wells were washed with PBS and incubated with or without 25 μM H2DCFDA for 45 minutes at 37° C. in a non-CO2 incubator with compounds of interest diluted in phenol-red free RPMI (supplemented with 2 mM glutamine and 10% charcoal-stripped serum). Wells were washed with PBS and received compounds of interest diluted in phenol-red free, supplemented RPMI and incubated at 37° C. in a SpectraMax M4 Microplate Reader (Molecular Devices) to record fluorescent measurements (Ex/Em=485/535 nm) every 15 minutes overnight. Maximum fluorescence intensity was determined (~6 hours), background signal (—H2DCFDA) was subtracted from each group, and corrected values were normalized to the vehicle control.

8505C cells [2] = assay: Metabolic flux analysis (Seahorse ECAR and OCR); assay type: cell-based, human; conditions: for extracellular acidification rate (ECAR): 8505C cells; for oxygen consumption rate (OCR): 50 μM CP-91,149, 24 hours
Procedure: Metabolic Flux Analysis—Thyroid cells (5.0×10^4) were plated in a 96 well Seahorse culture plate with compounds of interest diluted in 200 μl CTM for 24 hours. Cells were washed with PBS and equilibrated for 1 hour at 37° C. in a non-CO2 incubator with compounds of interest diluted in Seahorse RPMI (supplemented with 11.1 mM glucose, 2 mM glutamine, and 5% serum) before analysis of OCR and ECAR in a Metabolic Flux Analyzer (Seahorse Bioscience, North Billerica, MA 96XP).

Nthy-ori-3-1 cells [3] = assay: Glycogen content (colorimetric assay, TEM) in normal thyroid cells; assay type: cell-based, human; conditions: Nthy-ori-3-1 normal thyroid cells, CP-91,149 50 μM, 24-hour incubation
Procedure: (§1) Transmission Electron Microscopy of Glycogen Deposits—Cells were seeded in 10 cm dishes and allowed to adhere overnight. […] Cells were then rinsed with PBS and lifted with trypsin for preparation for TEM as described previously. Thwe et al., “Cell-intrinsic Glycogen Metabolism Supports Early Glycolytic Reprogramming Required for Dendritic Cell Immune Responses,” Cell Metabolism 26:558-567.e555 (2017), which is hereby incorporated by reference in its entirety.
(§2) Quantification of Levels of Glycogen, Glucose-1-Phosphate, Glucose-6-Phosphate, Lactate, ATP, Glucose, NADPH, and Glutathione—Briefly, cells were seeded in 10 cm dishes (for measuring glycogen and NADPH), 6 well plates (GIP, G6P, lactate, glucose, and glutathione), or 96 well plates (ATP) and allowed to adhere overnight. CTM was aspirated and cells were rinsed with PBS before application of compounds dissolved in CTM for 24 hours, at which point cells were ~90% confluent. CTM was then aspirated, cells were rinsed with PBS, and lysed according to the respective manufacturer protocol (see Table 4) for metabolite analysis.

8505C cells [4] = assay: Quantification of G1P, G6P, lactate, ATP, glucose, NADPH and glutathione; assay type: cell-based, human; conditions: 50 μM CP-91,149, 24 hours
Procedure: as §2

PYG isoforms = conditions: cited from earlier work
Nthy-ori-3-1 cells [5] = assay: Immunoblot of apoptosis markers and Ki-67 in normal thyroid cells; assay type: cell-based, human
Procedure: Briefly, proteins were isolated from whole cells in lysis buffer (20 mM Tris-HCl (pH 8), 137 mM NaCl, 10% glycerol, 1% Triton X-100, and 2 mM EDTA), quantified via Pierce™ BCA Protein Assay Kit (Thermo Fisher Scientific), and 25 μg protein/sample were resolved by polyacrylamide gel electrophoresis and immobilized onto nitrocellulose membranes. Membranes were blocked with 5% w/v BSA in TBS and 0.1% v/v Tween20 (Gold Bio, St Louis, MO, USA) for one hour at room temperature and incubated with primary antibodies overnight. Membranes were washed with TBS-0.1% Tween20 and secondary antibodies were applied for 1 hour at room temperature in 5% w/v BSA in TBS and 0.1% v/v Tween20. Immunoreactive proteins were detected by enhanced chemiluminescence (Thermo Scientific) on a ChemiDoc XRS+ (Bio-Rad Laboratories). Densitometry analysis was performed using ImageJ.

HepG2 cells = conditions: hepatocellular carcinoma; cited from earlier work
8505C cells [6] = assay: Glycogen content (colorimetric assay, TEM) in ATC cells; assay type: cell-based, human; conditions: ATC cells (8505C), CP-91,149 50 μM, 24-hour incubation, colorimetry and TEM
Procedure: as §1
PYGB RNA Interference—For validating successful PYGB knockdown, 4.0×10^4 cells were plated in 12 well plates containing 0.2% Lipofectamine™ 3000 Transfection Reagent and the indicated concentration of siRNA targeting PYGB or control siRNA in 1 ml CTM. RNA was extracted 72 hours later for RT-qPCR analysis and protein was extracted 96 hours later for immunoblotting. For measuring the effect of PYGB knockdown on cell viability, 1.0×10^3 cells were seeded in 96 well plates with 0.15% Lipofectamine™ 3000 Transfection Reagent and the indicated concentration of siRNA targeting PYGB or control siRNA in 200 μl CTM for 7 days before conducting the SRB assay. For measuring the effect of PYGB knockdown on glycogen content, 6.5×10^5 cells were seeded in 10 cm dishes with 0.2% Lipofectamine™ 3000 Transfection Reagent and the indicated concentration of siRNA targeting PYGB or control siRNA in 10 ml CTM for 4 days preceding cell lysis for glycogen determination.
as §2

8505C cells [7] = assay: Cell attachment to fibronectin-coated plates; assay type: cell-based, human; conditions: 24 hours of 50 μM CP treatment
Text: Cells were washed with PBS and lifted with trypsin.

8505C thyrospheres = assay: ATC stem cell thyrosphere growth; assay type: cell-based, human; conditions: 8505C stem cells, day 3 compared to day 1
Text: Bolf et al., “Thyroid Hormone Receptor Beta Induces a Tumor Suppressive Program in Anaplastic Thyroid Cancer,” Molecular Cancer Research 18(10):1443-1452 (2020), which is hereby incorporated by reference in its entirety. Thyrospheres per well were counted and imaged using a digital camera (Diagnostics Instruments) connected to a Nikon Eclipse TS100 inverted microscope.

SMILES: CN(C)C(=O)[C@H](O)[C@H](Cc1ccccc1)NC(=O)c1cc2cc(Cl)ccc2[nH]1 [CP-91,149, 5-chloro-N-[(2S,3R)-4-(dimethylamino)-3-hydroxy-4-oxo-1-phenylbutan-2-yl]-1H-indole-2-carboxamide]
- reactive oxygen species (ROS) levels (8505C cells [1]): induced reactive oxygen species accumulation; also recorded: enhances the relative levels of reactive oxygen species
- reactive oxygen species (ROS) levels (8505C cells [1]; listed as CP): three-fold increase; also recorded: higher in cells treated with CP compared to 2-DG
- ROS levels with excess glucose (8505C cells [1]; 8505C cells): excess glucose reduced ROS levels only in CP-treated cells
- extracellular acidification rate (ECAR) (8505C cells [2]): enhances extracellular acidification rate
- extracellular acidification rate (ECAR) (8505C cells [2]; listed as CP): modestly but significantly enhanced ECAR
- increase of OCR to compensate for inhibition of glycolysis with 2-DG (8505C cells [2]; ATC cells, CP-treated versus vehicle-treated): unable to increase their oxidative phosphorylation
- oxygen consumption rate (OCR) (8505C cells [2]; ATC cells): decreases the basal oxygen consumption rate
- oxygen consumption rate (OCR) (8505C cells [2]; ATC cells, listed as CP): significantly limited the OCR
- glycogen content (Nthy-ori-3-1 cells [3]): increased glycogen content
- glycogen content (Nthy-ori-3-1 cells [3]; listed as CP): significantly increased glycogen content
- NADPH level (8505C cells [4]; 8505C cells): decreased NADPH levels; also recorded: decreases the available supply of NADPH
- extracellular glucose / glucose uptake from the cell culture media (8505C cells [4]; 8505C cells): causes an increase in glucose uptake from the cell culture media
- glucose-1-phosphate (G1P) level (8505C cells [4]; 8505C cells): causes a buildup in glucose-1-phosphate
- glucose-6-phosphate (G6P) level (8505C cells [4]; 8505C cells): a reduction in glucose-6-phosphate
- lactate production (8505C cells [4]; 8505C cells): enhances
- reduced glutathione (GSH) (8505C cells [4]; 8505C cells): decreases the relative amount of reduced glutathione (GSH)
- NADPH level (8505C cells [4]; 8505C cells, listed as CP): drastic decrease in NADPH
- extracellular glucose / glucose uptake from the cell culture media (8505C cells [4]; 8505C cells, listed as CP): significant reduction in extracellular glucose
- glucose-1-phosphate (G1P) level (8505C cells [4]; 8505C cells, listed as CP): a buildup of the glycogen monomer, glucose-1-phosphate (G1P)
- glucose-6-phosphate (G6P) level (8505C cells [4]; 8505C cells, listed as CP): a decrease in the glycolytic intermediate, glucose-6-phosphate (G6P)
- reduced glutathione (GSH) (8505C cells [4]; 8505C cells, listed as CP): concomitant loss in reduced glutathione (GSH)
- ATP levels (8505C cells [4]; ATC cells): decreases the levels of ATP
- inhibition of PYG isoforms (PYG isoforms): inhibits all PYG isoforms
- apoptosis (PARP and caspase cleavage) (Nthy-ori-3-1 cells [5]): but not normal thyroid cells
- apoptosis (PARP and caspase cleavage) (Nthy-ori-3-1 cells [5]; listed as CP): did not significantly induce apoptosis
- proliferation (Ki-67 levels) (Nthy-ori-3-1 cells [5]; listed as CP): not affected
- ROS levels (HepG2 cells): increased ROS levels
- autophagic adaptations (HepG2 cells): triggered autophagic adaptations
- intrinsic apoptosis (HepG2 cells): induce intrinsic apoptosis
- glycogen content (8505C cells [6]): increased glycogen content; also recorded: causes a buildup of glycogen
- glycogen content (8505C cells [6]; listed as CP): significantly increased glycogen content
- cell attachment to fibronectin-coated plates (8505C cells [7]): inhibits cell attachment
- cell attachment to fibronectin-coated plates (8505C cells [7]; listed as CP): inhibited the ability of 8505C cells to attach to fibronectin-coated plates
- thyrosphere growth / stem cell response (8505C thyrospheres): inhibits 8505C thyrosphere growth
- thyrosphere growth / stem cell response (8505C thyrospheres; listed as CP): concentration-dependent response
